From patent publication US6653306B1, “Epoxy-steroidal aldosterone antagonist and angiotensin II antagonist combination therapy” (G.D. Searle & Co., priority 1995, dated 2003)

Experiments:
pressor response to AII = assay: Assay C: In vivo intragastric pressor assay response for AII antagonists; parameters: species or system rat; conditions: intragastric, or intraduodenal for examples listed; for inhibition at 3 mg/kg / Assay C Duration: dose 3 mg/kg
Description: Assay C: In Vivo Intragastric Pressor Assay Response for AII Antagonists
Male Sprague-Dawley rats weighing 225-300 grams were anesthetized with methohexital (30 mg/kg, i.p.) and catheters were implanted into the femoral artery and vein. The catheters were tunneled subcutaneously to exit dorsally, posterior to the head and between the scapulae. The catheters were filled with heparin (1000 units/ml of saline). The rats were returned to their cage and allowed regular rat chow and water ad libitum. After full recovery from surgery (3-4 days), rats were placed in Lucite holders and the arterial line was connected to a pressure transducer. Arterial pressure was recorded on a Gould polygraph (mmHg). Angiotensin II was administered as a 30 ng/kg bolus via the venous catheter delivered in a 50 μl volume with a 0.2 ml saline flush. The pressor response in mm Hg was measured by the differer.-:e from pre-injection arterial pressure to the maximum pressure achieved. The AII injection was repeated every 10 minutes until three consecutive injections yielded responses within 4 mmHg of each other. These three responses were then averaged and represented the control response to AII. The test compound was suspended in 0.5% methylcellulose in water and was administered by gavage. The volume administered was 2 ml/kg body weight. The standard dose was 3 mg/kg. Angiotensin II bolus injections were given at 30, 45, 60, 75, 120, 150, and 180 minutes after gavage. The pressor response to AII was measured at each time point. The rats were then returned to their cage for future testing. A minimum of 3 days was allowed between tests. Percent inhibition was calculated for each time point following gavage by the following formula:
[(Control Response—Response at time point)/Control Response]×100.

[1] = molecular target: angiotensin II AT1 receptor; assay: Assay A: Angiotensin II binding activity (125I-AII displacement, rat uterine membrane preparation)
Description: Assay A: Antiotensin II Binding Activity
Compounds of the invention were tested for ability to bind to the smooth muscle angiotensin II receptor using a rat uterine membrane preparation. […] Rat uterine membranes were prepared from fresh tissue. All procedures were carried out at 4° C. Uteri were stripped of fat and homogenized in phosphate-buffered saline at pH 7.4 containing 5 mM EDTA. The homogenate was centrifuged at 1500×g for 20 min., and the supernatant was recentrifuged at 100,000×g for 60 min. The pellet was resuspended in buffer consisting of 2 mM EDTA and 50 mM Tris-HCl (pH 7.5) to a final protein concentration of 4 mg/ml. […] The reaction was initiated by the addition of membrane protein and the mixture was incubated at 25° C. for 60 min. The incubation was terminated with ice-cold 50 mM Tris-HCl (pH 7.5) and the mixture was filtered to separate membrane-bound labelled peptide from the free ligand. The incubation tube and filter were washed with ice-cold buffer. Filters were assayed for radioactivity in a Micromedic gamma counter.
Nonspecific binding was defined as binding in the presence of 10 μM of unlabelled AII. Specific binding was calculated as total binding minus nonspecific binding. […] Binding data were analyzed by a nonlinear least-squares curve fitting program.

| Compound | inhibition at 3 mg/kg (pressor response to AII; Rattus norvegicus) | IC50 [1] | further results |
| --- | --- | --- | --- |
| CCCCc1nc(-c2ccccc2Cl)n(Cc2ccc(-c3ccccc3-c3nnn[nH]3)nc2)n1 [Compound 268] | 0% | 520 nM |  |
| CCCCc1cn(CCCC)c(=O)n1Cc1ccc(-c2ccccc2-c2nnn[nH]2)nc1 [Compound 185] | 50% | 6.5 nM | Assay C Duration (pressor response to AII): >180 min |
| CCCCc1cn(-c2c(F)cccc2F)c(=O)n1Cc1ccc(-c2ccccc2-c2nnn[nH]2)nc1 [Compound 220] | 75% | 7 nM | Assay C Duration (pressor response to AII): 120 min |
| CCCCc1cn(-c2c(C)cccc2Cl)c(=O)n1Cc1ccc(-c2ccccc2-c2nnn[nH]2)nc1 [Compound 231] | 75% | 3.6 nM | Assay C Duration (pressor response to AII): >180 min |
| CCCCn1nc(C2OCC(C)(C)CO2)nc1Cc1ccc(-c2ccccc2-c2nnn[nH]2)nc1 [Compound 181] | 20% | 21 nM | Assay C Duration (pressor response to AII): 180 min |
| CCCc1cn(CCC)c(=O)n1Cc1ccc(-c2ccccc2-c2nnn[nH]2)nc1 [Compound 186] | 25% | 38 nM | Assay C Duration (pressor response to AII): 180 min |
| CCCCc1cn(-c2ccccc2Cl)c(=O)n1Cc1ccc(-c2ccccc2-c2nnn[nH]2)nc1 [Compound 216] | 50% | 5.4 nM | Assay C Duration (pressor response to AII): >180 min |
| CCCCc1nc(CC(C)(C)C)nn1Cc1ccc(-c2ccccc2-c2nnn[nH]2)nc1 [Compound 249] | 20% | 4.4 nM | Assay C Duration (pressor response to AII): >180 min |
| CCCCc1nc(CCCC)n(Cc2ccc(-c3ccccc3-c3nnn[nH]3)cc2)n1 [compound 3] |  |  | inhibition at 10 mg/kg (pressor response to AII; Rattus norvegicus): 50%; inhibition at 30 mg/kg (pressor response to AII; Rattus norvegicus): 100% |
| CCCCc1cn(-c2c(CC)cccc2CC)c(=O)n1Cc1ccc(-c2ccccc2-c2nnn[nH]2)nc1 [Compound 234] | 20% | 5 nM |  |
| CCCCn1cc(C2CCCCC2)n(Cc2ccc(-c3ccccc3-c3nnn[nH]3)nc2)c1=O [Compound 191] | 10% | 81 nM | Assay C Duration (pressor response to AII): 180 min |
| CCCCc1cn(CC(C)(C)C)c(=O)n1Cc1ccc(-c2ccccc2-c2nnn[nH]2)nc1 [Compound 202] | 65% | 12 nM | Assay C Duration (pressor response to AII): >180 min |
| CCCCc1nc(Cl)n(Cc2ccc(-c3ccccc3-c3nnn[nH]3)cc2)n1 [compound 9] |  |  | inhibition at 30 mg/kg (pressor response to AII; Rattus norvegicus): 80%; inhibition at 100 mg/kg (pressor response to AII; Rattus norvegicus, dose 100 mg/kg): 100% |
| CCCCc1cn(CC2CCCC2)c(=O)n1Cc1ccc(-c2ccccc2-c2nnn[nH]2)nc1 [Compound 208] | 50% | 22 nM | Assay C Duration (pressor response to AII): >180 min |
| CCCCCn1cc(CCCC)n(Cc2ccc(-c3ccccc3-c3nnn[nH]3)nc2)c1=O [Compound 199] | 60% | 10 nM | Assay C Duration (pressor response to AII): >180 min |
| CCCCc1cn(-c2cccn2CC)c(=O)n1Cc1ccc(-c2ccccc2-c2nnn[nH]2)nc1 [Compound 238] | 15% | 1.7 nM | Assay C Duration (pressor response to AII): >180 min |
| CCCCc1cn(CCC2CC2)c(=O)n1Cc1ccc(-c2ccccc2-c2nnn[nH]2)nc1 [Compound 206] | 30% | 5.4 nM | Assay C Duration (pressor response to AII): >180 min |
| CCCCc1nc(C(F)(F)CCC)nn1Cc1ccc(-c2ccccc2-c2nnn[nH]2)cc1 [compound 10] | 86% |  | inhibition at 30 mg/kg (pressor response to AII; Rattus norvegicus): 100% |
| CCCCc1nc(CCCC)n(Cc2ccc(-c3ccccc3C(=O)NNS(=O)(=O)C(F)(F)F)cc2)n1 [compound 5] |  |  | inhibition at 30 mg/kg (pressor response to AII; Rattus norvegicus): 38% |
| CCCCc1cn(-c2ccccc2)c(=O)n1Cc1ccc(-c2ccccc2-c2nnn[nH]2)nc1 [Compound 215] |  | 45 nM |  |
| CCCCc1nc(-c2c(F)cccc2F)n(Cc2ccc(-c3ccccc3-c3nnn[nH]3)nc2)n1 [Compound 270] |  | 21 nM |  |
| CCCCc1cn(CCC)c(=O)n1Cc1ccc(-c2ccccc2-c2nnn[nH]2)nc1 [Compound 196] |  | 31 nM |  |
| CCCCc1nc(C(F)(F)C(F)(F)F)nn1Cc1ccc(-c2ccccc2-c2nnn[nH]2)cc1 [Compound 69] |  | 15 nM |  |

| Compound | inhibition at 3 mg/kg (pressor response to AII; Rattus norvegicus) | IC50 [1] | further results |
| --- | --- | --- | --- |
| CCCCc1nc(CCc2ccccc2)nn1Cc1ccc(-c2ccccc2-c2nnn[nH]2)nc1 [Compound 253] |  | 2.6 nM |  |
| CCCCc1nn(C/C=C/c2ccccc2)c(=O)n1Cc1ccc(-c2ccccc2-c2nn[nH]n2)cc1 [Compound 105] |  | 290 nM |  |
| CCCCc1nc(CF)n(Cc2ccc(-c3ccccc3-c3nnn[nH]3)cc2)n1 [Compound 60] |  | 2200 nM |  |
| CCCCc1nc(C)nn1Cc1ccc(-c2ccccc2-c2nnn[nH]2)cc1 [Compound 32] |  | 16 nM |  |
| CCCCc1nc(CCCC)n(Cc2ccc(-c3ncccc3-c3nnn[nH]3)cc2)n1 [Compound 245] |  | 98 nM |  |
| CCCCc1nc(CCCC)n(Cc2ccc(-c3ccccc3-c3nnn[nH]3)nc2)n1 [Compound 241] | 40% |  |  |
| CCCCc1cn(C2C3CC4CC(C3)C2C4)c(=O)n1Cc1ccc(-c2ccccc2-c2nnn[nH]2)nc1 (stereo not drawn) [Compound 213] |  | 51 nM |  |
| CCCCc1nc(CCCC)n(Cc2ccc(-c3cccnc3-c3nnn[nH]3)cc2)n1 [Compound 242] |  | 110 nM |  |
| CCCCCn1nc(CCCC)nc1Cc1ccc(-c2ccccc2-c2nnn[nH]2)nc1 [Compound 155] |  | 86 nM |  |
| CCCCn1nc(C(C)=O)nc1Cc1ccc(-c2ccccc2-c2nnn[nH]2)nc1 [Compound 183] |  | 390 nM |  |
| CCCCc1cn(C2CCCC2)c(=O)n1Cc1ccc(-c2ccccc2-c2nnn[nH]2)nc1 [Compound 207] |  | 99 nM |  |
| CCCCc1nc(CC)n(Cc2ccc(-c3ccccc3-c3nnn[nH]3)cc2)n1 [Compound 40] |  | 83 nM |  |
| CCCCc1nc(CCCN)n(Cc2ccc(-c3ccccc3-c3nnn[nH]3)cc2)n1 [Compound 71] |  | 12000 nM |  |
| CCCCc1cn(-c2ccccc2OC)c(=O)n1Cc1ccc(-c2ccccc2-c2nnn[nH]2)nc1 [Compound 218] |  | 9 nM |  |
| CCCCc1nc(CCCC)n(Cc2ccc(-c3ccccc3C(=O)O)cc2)n1 [compound 2] |  |  | inhibition at 10 mg/kg (pressor response to AII; Rattus norvegicus): 95%; inhibition at 30 mg/kg (pressor response to AII; Rattus norvegicus): 98% |
| CCCCc1nc(CCCC)n(Cc2ccc(-c3ccccc3C(=O)O)nc2)n1 [Compound 240] |  | 120 nM |  |
| CCCCc1nc(-c2ccccc2)nn1Cc1ccc(-c2ccccc2-c2nnn[nH]2)cc1 [Compound 21] |  | 87 nM |  |
| CCCCc1nc(C23CC4CC(CC(C4)C2)C3)nn1Cc1ccc(-c2ccccc2-c2nnn[nH]2)cc1 [Compound 56] |  | 5 nM |  |
| CCCCn1cc(CC(C)C)n(Cc2ccc(-c3ccccc3-c3nnn[nH]3)nc2)c1=O [Compound 188] |  | 140 nM |  |
| CCCCc1cn(C)c(=O)n1Cc1ccc(-c2ccccc2-c2nnn[nH]2)nc1 [Compound 194] |  | 47 nM |  |
| CCCCn1nc(C(F)CCC)nc1Cc1ccc(-c2ccccc2-c2nnn[nH]2)nc1 (stereo not drawn) [Compound 161] |  | 28 nM |  |
| CCCCn1nc(C(=O)NC(C)(C)C)nc1Cc1ccc(-c2ccccc2-c2nnn[nH]2)nc1 [Compound 173] |  | 90 nM |  |
| CCCCc1cn(-c2ccccc2C(C)C)c(=O)n1Cc1ccc(-c2ccccc2-c2nnn[nH]2)nc1 [Compound 219] |  | 14 nM |  |
